In patent publication US12440496B2, “Natriuretic peptide receptor a agonists useful for the treatment of cardiometabolic diseases, kidney disease and diabetes” (Merck Sharp & Dohme LLC, priority 2019, dated 2025):

molecular target: T1, hNPRA (Homo sapiens, UniProt P16066); assay: NPRA Functional Cell Assay (cGMP HTRF, NPRA HEK JumpIn stable cells); format: cell-based; settings: cGMP production, 1 hour at 37° C., 10-point dose response
T1 construct: expressed in transfected cells
T1 sequence (P16066 33-1061): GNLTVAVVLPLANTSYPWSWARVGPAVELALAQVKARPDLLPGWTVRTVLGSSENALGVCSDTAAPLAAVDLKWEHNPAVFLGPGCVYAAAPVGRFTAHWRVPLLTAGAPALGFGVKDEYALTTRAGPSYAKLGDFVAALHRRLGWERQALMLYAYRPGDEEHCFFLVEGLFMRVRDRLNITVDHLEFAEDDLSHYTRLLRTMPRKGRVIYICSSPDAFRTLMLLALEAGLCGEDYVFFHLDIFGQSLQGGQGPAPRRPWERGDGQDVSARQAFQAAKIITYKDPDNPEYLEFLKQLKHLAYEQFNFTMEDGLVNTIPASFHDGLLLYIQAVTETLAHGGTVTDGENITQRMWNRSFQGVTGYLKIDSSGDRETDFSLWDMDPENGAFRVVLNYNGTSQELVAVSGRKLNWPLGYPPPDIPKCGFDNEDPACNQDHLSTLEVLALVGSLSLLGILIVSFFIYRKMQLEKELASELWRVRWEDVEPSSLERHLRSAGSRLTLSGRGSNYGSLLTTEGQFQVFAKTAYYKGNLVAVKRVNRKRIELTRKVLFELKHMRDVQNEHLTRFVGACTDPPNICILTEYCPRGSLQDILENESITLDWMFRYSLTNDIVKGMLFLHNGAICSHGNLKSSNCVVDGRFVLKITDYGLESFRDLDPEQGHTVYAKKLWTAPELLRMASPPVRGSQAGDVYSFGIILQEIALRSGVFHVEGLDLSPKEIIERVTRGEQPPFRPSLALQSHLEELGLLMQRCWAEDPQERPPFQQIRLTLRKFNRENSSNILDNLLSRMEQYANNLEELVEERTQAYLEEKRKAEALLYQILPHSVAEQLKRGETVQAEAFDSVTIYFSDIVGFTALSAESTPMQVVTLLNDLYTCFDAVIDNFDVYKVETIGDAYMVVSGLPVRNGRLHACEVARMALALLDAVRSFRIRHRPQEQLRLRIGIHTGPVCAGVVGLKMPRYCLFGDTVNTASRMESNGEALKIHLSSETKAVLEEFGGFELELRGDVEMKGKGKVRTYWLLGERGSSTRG
How it was run: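 cGMP HTRF read-out after 1 hour compound treatment at 37° C. of human NPRA-expressing HEK JumpIn cells, 1500 cells/well, in buffer with phosphodiesterase inhibitors IBMX and RO20 (100 uM each). Signal converted to [cGMP] by calibration curve; EC50s fitted by 4-parameter logistic; 50 nM h-ANP as positive response.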

`CN(C)S(=O)(=O)Nc1ccc([C@@H](CCN2CCC(O)CC2)NC(=O)c2nc3cc4c(nc3s2)CC[C@H](C(C)(C)C)C4)cc1F` [Example 226, (S)-7-(tert-butyl)-N-((R)-1-(4-((N,N-dimethylsulfamoyl)amino)-3-fluorophenyl)-3-(4-hydroxypiperidin-1-yl)propyl)-5,6,7,8-tetrahydrothiazolo[5,4-b]quinoline-2-carboxamide] and `CCS(=O)(=O)c1ccc([C@@H](CCN2CCC(O)CC2)NC(=O)c2nc3cc4c(nc3s2)CC[C@H](C(C)(C)C)C4)cn1` [Example 227, (S)-7-(tert-butyl)-N-((R)-1-(6-(ethylsulfonyl)pyridin-3-yl)-3-(4-hydroxypiperidin-1-yl)propyl)-5,6,7,8-tetrahydrothiazolo[5,4-b]quinoline-2-carboxamide] are within 1.5-fold of each other in EC50: 0.677 µM for the first, 0.696 µM for the second.

Going from `CC(C)(C)[C@H]1CCc2nc3sc(C(=O)N[C@H](CCN4CCC(O)CC4)c4ccc(-c5cc(F)c(O)cn5)cc4)nc3cc2C1` [Example 228, (S)-7-(tert-butyl)-N-((R)-1-(4-(4-fluoro-5-hydroxypyridin-2-yl)phenyl)-3-(4-hydroxypiperidin-1-yl)propyl)-5,6,7,8-tetrahydrothiazolo[5,4-b]quinoline-2-carboxamide] to `CC(C)(C)[C@H]1CCc2nc3sc(C(=O)N[C@H](CCN4CCC(O)CC4)c4ccc(-c5c[nH]c(=O)c(F)c5)cc4)nc3cc2C1` [Example 236, (S)-7-(tert-butyl)-N-((R)-1-(4-(5-fluoro-6-oxo-1,6-dihydropyridin-3-yl)phenyl)-3-(4-hydroxypiperidin-1-yl)propyl)-5,6,7,8-tetrahydrothiazolo[5,4-b]quinoline-2-carboxamide], the EC50 falls from 0.305 µM to 0.14 µM (2.2-fold).

`CC(C)(C)[C@H]1CCc2nc3sc(C(=O)N[C@H](CCN)c4ccccc4)cc3cc2C1` [Example 229, (S)-N-((R)-3-amino-1-phenylpropyl)-6-(tert-butyl)-5,6,7,8-tetrahydrothieno[2,3-b]quinoline-2-carboxamide] and `CCN(CC)CCC(NC(=O)c1cc2cc3c(nc2s1)CC[C@H](C(C)(C)C)C3)c1ccccc1` (stereo partly drawn) [Example 244, (6S)-6-tert-butyl-N-[3-(diethylamino)-1-phenylpropyl]-5,6,7,8-tetrahydrothieno[2,3-b]quinoline-2-carboxamide] cannot be ordered by EC50: greater than 2 µM for the first, 2.2 µM for the second.

`CC(C)(C)[C@H]1CCc2nc3sc(C(=O)N[C@H](CCN4CCC(O)CC4)c4ccc(N5CCOC5=O)cc4)nc3cc2C1` [Example 230, (S)-7-(tert-butyl)-N-((R)-3-(4-hydroxypiperidin-1-yl)-1-(4-(2-oxooxazolidin-3-yl)phenyl)propyl)-5,6,7,8-tetrahydrothiazolo[5,4-b]quinoline-2-carboxamide] and `CC1([C@H]2CCc3nc4sc(C(=O)N[C@H](CCN5CCC(O)CC5)c5ccc(N6CCOC6=O)cc5)nc4cc3C2)CC1` [Example 231, (S)-N-((R)-3-(4-hydroxypiperidin-1-yl)-1-(4-(2-oxooxazolidin-3-yl)phenyl)propyl)-7-(1-methylcyclopropyl)-5,6,7,8-tetrahydrothiazolo[5,4-b]quinoline-2-carboxamide] are within 1.5-fold of each other in EC50: 1.02 µM for the first, 0.725 µM for the second.

`O=C(N[C@H](CCN1CCC(O)CC1)c1ccc(N2CCOC2=O)cc1)c1nc2cc3c(nc2s1)CC[C@H](C1(C(F)(F)F)CC1)C3` [Example 232, (S)-N-((R)-3-(4-hydroxypiperidin-1-yl)-1-(4-(2-oxooxazolidin-3-yl)phenyl)propyl)-7-(1-(trifluoromethyl)cyclopropyl)-5,6,7,8-tetrahydrothiazolo[5,4-b]quinoline-2-carboxamide] and `CC(C)C1(F)CCc2nc3sc(C(=O)N[C@H](CCN4CCC(O)CC4)c4ccc(N5CCOC5=O)cc4)nc3cc2C1` (stereo partly drawn) [Example 233, 7-fluoro-N-((R)-3-(4-hydroxypiperidin-1-yl)-1-(4-(2-oxooxazolidin-3-yl)phenyl)propyl)-7-isopropyl-5,6,7,8-tetrahydrothiazolo[5,4-b]quinoline-2-carboxamide] are within 1.5-fold of each other in EC50: 2.2 µM for the first, 2.04 µM for the second.

Compared with `CC1([C@H]2CCc3nc4sc(C(=O)N[C@H](CCN5CCC(O)CC5)c5ccc(-c6c[nH]c(=O)c(F)c6)cc5)nc4cc3C2)CC1` [Example 234, (S)-N-((R)-1-(4-(5-fluoro-6-oxo-1,6-dihydropyridin-3-yl)phenyl)-3-(4-hydroxypiperidin-1-yl)propyl)-7-(1-methylcyclopropyl)-5,6,7,8-tetrahydrothiazolo[5,4-b]quinoline-2-carboxamide], `O=C(N[C@H](CCN1CCC(O)CC1)c1ccc(-c2cnc(O)c(F)c2)cc1)c1nc2cc3c(nc2s1)CC[C@H](C1(C(F)(F)F)CC1)C3` [Example 235, (S)-N-((R)-1-(4-(5-fluoro-6-oxo-1,6-dihydropyridin-3-yl)phenyl)-3-(4-hydroxypiperidin-1-yl)propyl)-7-(1-(trifluoromethyl)cyclopropyl)-5,6,7,8-tetrahydrothiazolo[5,4-b]quinoline-2-carboxamide] is 4.7-fold higher in EC50: 0.12 µM for the first, 0.56 µM for the second.

First: CC(C)(C)[C@H]1CCc2nc3sc(C(=O)N[C@H](CCN4CCCCC4)c4ccc(-c5cnc(O)c(F)c5)cc4)cc3cc2C1 [Example 238, (S)-6-(tert-butyl)-N-((R)-1-(4-(5-fluoro-6-hydroxypyridin-3-yl)phenyl)-3-(piperidin-1-yl)propyl)-5,6,7,8-tetrahydrothieno[2,3-b]quinoline-2-carboxamide]
Second: Cc1cc(-c2ccc([C@@H](CCN3CCCCC3)NC(=O)c3cc4cc5c(nc4s3)CC[C@H](C(C)(C)C)C5)cc2)cnc1O [Example 239, (6S)-6-tert-butyl-N-{(1R)-1-[4-(6-hydroxy-5-methylpyridin-3-yl)phenyl]-3-piperidin-1-ylpropyl}-5,6,7,8-tetrahydrothieno[2,3-b]quinoline-2-carboxamide]
The EC50 of the first is 6-fold lower: 0.235 µM for the first, 1.4 µM for the second.

`Cc1nc(O)ccc1-c1ccc([C@@H](CCN2CCCCC2)NC(=O)c2cc3cc4c(nc3s2)CC[C@H](C(C)(C)C)C4)cc1` [Example 240, (6S)-6-tert-butyl-N-{(1R)-1-[4-(6-hydroxy-2-methylpyridin-3-yl)phenyl]-3-piperidin-1-ylpropyl}-5,6,7,8-tetrahydrothieno[2,3-b]quinoline-2-carboxamide] and `CC(C)(C)[C@H]1CCc2nc3sc(C(=O)N[C@H](CCN4CCCCC4)c4ccc(-c5cnc(O)c(N)c5)cc4)cc3cc2C1` [Example 241, (6S)-N-{(1R)-1-[4-(5-amino-6-hydroxypyridin-3-yl)phenyl]-3-piperidin-1-ylpropyl}-6-tert-butyl-5,6,7,8-tetrahydrothieno[2,3-b]quinoline-2-carboxamide] are within 1.5-fold of each other in EC50: 1.66 µM for the first, 1.73 µM for the second.

Going from `CC(C)(C)[C@H]1CCc2nc3sc(C(=O)NC(CCN4CCCCC4)c4ccccc4)cc3cc2C1` (stereo partly drawn) [Example 242, (6S)-6-tert-butyl-N-(1-phenyl-3-piperidin-1-ylpropyl)-5,6,7,8-tetrahydrothieno[2,3-b]quinoline-2-carboxamide] to `CC(C)(C)[C@H]1CCc2nc3sc(C(=O)NC(CCN4CCOCC4)c4ccccc4)cc3cc2C1` (stereo partly drawn) [Example 243, (6S)-6-tert-butyl-N-(3-morpholin-4-yl-1-phenylpropyl)-5,6,7,8-tetrahydrothieno[2,3-b]quinoline-2-carboxamide], the EC50 rises from 1.87 µM to 6.32 µM (3.4-fold). The first is the more potent here.

Going from `CC(C)(C)[C@H]1CCc2nc3sc(C(=O)NC(CCN4CCNCC4)c4ccccc4)cc3cc2C1` (stereo partly drawn) [Example 245, (6S)-6-tert-butyl-N-(1-phenyl-3-piperazin-1-ylpropyl)-5,6,7,8-tetrahydrothieno[2,3-b]quinoline-2-carboxamide] to `CC(C)(C)[C@H]1CCc2nc3sc(C(=O)N[C@H](CCN4CCC(O)CC4)c4ccccc4)cc3cc2C1` [Example 250, (6S)-6-tert-butyl-N-[(1R)-3-(4-hydroxypiperidin-1-yl)-1-phenylpropyl]-5,6,7,8-tetrahydrothieno[2,3-b]quinoline-2-carboxamide], the EC50 falls from 6.32 µM to 0.632 µM (10-fold). The second is the more potent here.

Compared with `CC(C)(C)[C@H]1CCc2nc3sc(C(=O)N[C@H](CCNC4CCOCC4)c4ccccc4)cc3cc2C1` [Example 248, (6S)-6-tert-butyl-N-[(1R)-1-phenyl-3-(tetrahydro-2H-pyran-4-ylamino)propyl]-5,6,7,8-tetrahydrothieno[2,3-b]quinoline-2-carboxamide], `CC(C)(C)[C@H]1CCc2nc3sc(C(=O)N[C@H](CCN4CCCC(O)C4)c4ccccc4)cc3cc2C1` (stereo partly drawn) [Example 251, (6S)-6-tert-butyl-N-[(1R)-3-(3-hydroxypiperidin-1-yl)-1-phenylpropyl]-5,6,7,8-tetrahydrothieno[2,3-b]quinoline-2-carboxamide] is 10-fold lower in EC50: 6.32 µM for the first, 0.632 µM for the second. The second is the more potent here.
